Measurements published in patent publication US8410289B2, “Spirocyclic 3'-alkoxytetramic acids and-tetronic acids” (Bayer Cropscience AG, priority 2004, dated 2013).

Assay: log P determination by HPLC on reverse-phase column (C 18), EEC-Directive 79/831 Annex V.A8
Type: physicochemical
Conditions: for chromatographic logP: reverse-phase HPLC column (C 18), HPLC, reverse-phase column (C 18), 43° C.
Description: • The log P values given in the tables and preparation examples above are determined in accordance with EEC-Directive 79/831 Annex V.A8 by HPLC (High Performance Liquid Chromatography) on a reverse-phase column (C 18). Temperature: 43° C.
The determination is carried out in the acidic range at pH 2.3 using the mobile phases 0.1% aqueous phosphoric acid and acetonitrile; linear gradient from 10% acetonitrile to 95% acetonitrile.
The LC-MS determination in the acidic range is carried out at pH 2.7 using the mobile phases 0.1% aqueous formic acid and acetonitrile (contains 0.1% formic acid); linear gradient from […] acetonitrile to 95% acetonitrile.
The LC-MS determination in the neutral range is carried out at pH 7.8 using the mobile phases 0.001 molar aqueous ammonium bicarbonate solution and acetonitrile; linear gradient from 10% acetonitrile to 95% acetonitrile.
The calibration is carried out using unbranched alkan-2-ones (with 3 to 16 carbon atoms) with known log P values (determination of the log P values by retention times using linear interpolation between two successive alkanones).

[1] = compounds of formula (I-2-a); generally isomer mixtures; those marked 1) were separated into cis and trans diastereomers
[2] = compounds of formula (I-2-b), isomer (cis, trans or α + β about 1:1), two values for α + β mixtures
[3] = HPLC reverse-phase C 18, acidic range pH 2.3, 43° C.

Row | SMILES | logP [1] | also measured
1 | COC1CCCC2(C1)OC(=O)C(c1cc(-c3ccc(Cl)cc3)c(C)cc1C)=C2O (mixture of isomers) [Example I-2-a-2] | 3.4 | –
2 | CCc1cc(Br)cc(CC)c1C1=C(O)C2(CCCC(OC)C2)OC1=O (mixture of isomers) [Example I-2-a-3] | 2.98 | –
3 | COC1CCCC2(C1)OC(=O)C(c1c(C)cc(Cl)cc1Br)=C2O (mixture of isomers) [Example I-2-a-4] | 2.46 | –
4 | COC1CCCC2(C1)OC(=O)C(c1cc(C)ccc1C)=C2O (mixture of isomers) [Example I-2-a-35] | 2.15 | –
5 | COC1CCCC2(C1)OC(=O)C(c1ccc(Cl)cc1Br)=C2O (mixture of isomers) [Example I-2-a-36] | 2.25 | –
6 | COC1CCCC2(C1)OC(=O)C(c1ccc(Br)cc1Cl)=C2O (mixture of isomers) [Example I-2-a-37] | 2.31 | –
7 | COC1CCCC2(C1)OC(=O)C(c1ccc(Cl)cc1Cl)=C2O (mixture of isomers) [Example I-2-a-39] | 2.21 | –
8 | COC1CCCC2(C1)OC(=O)C(c1c(C)ccc(-c3ccc(Cl)cc3)c1C)=C2O (mixture of isomers) [Example I-2-a-42] | 3.29 | –
9 | COC1CCCC2(C1)OC(=O)C(c1cc(F)c(C)cc1C)=C2O (mixture of isomers) [Example I-2-a-45] | 2.25 | –
10 | COC1CCCC2(C1)OC(=O)C(c1c(C)ccc(Cl)c1C)=C2O (mixture of isomers) [Example I-2-a-46] | 2.42 | –
11 | COC1CCCC2(C1)OC(=O)C(c1c(C)cc(Br)c(C)c1Br)=C2O (mixture of isomers) [Example I-2-a-47] | 2.78 | –
12 | COC1CCCC2(C1)OC(=O)C(c1cc(C)ccc1Br)=C2O (mixture of isomers) [Example I-2-a-49] | 2.16 | –
13 | COc1ccc(C2=C(O)C3(CCCC(OC)C3)OC2=O)c(C)c1 (mixture of isomers) [Example I-2-a-50] | 2.21 | –
14 | COC1CCCC2(C1)OC(=O)C(c1c(Cl)ccc(C)c1Cl)=C2O (mixture of isomers) [Example I-2-a-52] | 2.23 | –
15 | COC1CCCC2(C1)OC(=O)C(c1c(C)cc(C)c(-c3ccc(Cl)cc3)c1C)=C2O (mixture of isomers) [I-2-a-30] | 3.60 | –
16 | COC1CCCC2(C1)OC(=O)C(c1ccccc1Cl)=C2O (mixture of isomers) [I-2-a-38] | 1.86 | –
17 | COC1CCCC2(C1)OC(=O)C(c1cc(Cl)c(Br)cc1Cl)=C2O (mixture of isomers) [I-2-a-40] | 2.53 | –
18 | COC1CCCC2(C1)OC(=O)C(c1c(C)cc(C)c(Br)c1C)=C2O (mixture of isomers) [I-2-a-41] | 2.70 | –
19 | COC1CCCC2(C1)OC(=O)C(c1cc(C)c(Cl)cc1C)=C2O (mixture of isomers) [I-2-a-43] | 2.47 | –
20 | COC1CCCC2(C1)OC(=O)C(c1cc(F)c(C)cc1Br)=C2O (mixture of isomers) [I-2-a-44] | 2.25 | –
21 | COC1CCCC2(C1)OC(=O)C(c1cc(Cl)c(C)cc1Cl)=C2O (mixture of isomers) [I-2-a-48] | 2.47 | –
22 | COC1CCCC2(C1)OC(=O)C(c1cc(Br)ccc1Br)=C2O (mixture of isomers) [I-2-a-51] | 2.27 | –
23 | COC1CCCC2(C1)OC(=O)C(c1ccc(Cl)cc1C)=C2O (single isomer, unassigned) [Example I-2-a-6] | 2.19 | –

Row | SMILES | logP [1] | also measured
24 | COC1CCCC2(C1)OC(=O)C(c1ccc(Cl)cc1C)=C2O (single isomer, unassigned) [Example I-2-a-8] | 2.11 | –
25 | COC1CCCC2(C1)OC(=O)C(c1c(C)cc(C)cc1C)=C2O (single isomer, unassigned) [Example I-2-a-14] | 2.31^1) | –
26 | COc1cc(C)cc(C)c1C1=C(O)C2(CCCC(OC)C2)OC1=O (single isomer, unassigned) [Example I-2-a-16] | 2.10^1) | –
27 | COC1CCCC2(C1)OC(=O)C(c1cc(-c3ccc(Cl)cc3)ccc1C)=C2O (single isomer, unassigned) [Example I-2-a-32] | 3.19^1) | –
28 | CCc1cc(C)cc(Br)c1CC(=O)NC1(C(=O)OC)CCCC(OCCOC)C1 (single isomer, unassigned) [II-28] | – | log P (compounds of formula (II), two values where an α/β isomer mixture is given): log P 3.64
29 | CCCCOC1CCCC2(C1)OC(=O)C(c1c(C)cc(C)cc1C)=C2O (centres unmarked) [Example I-2-a-1] | – | chromatographic logP: 3.57
30 | COC1CCCC2(C1)OC(=O)C(c1c(Cl)cc(C)cc1Br)=C2O (centres unmarked) [Example I-2-a-5] | 2.40 | –
31 | COC1CCCC2(C1)OC(=O)C(c1ccccc1C)=C2O (centres unmarked) [Example I-2-a-7] | 1.81 | –
32 | COC1CCCC2(C1)OC(=O)C(c1cc(C)c(C)cc1Br)=C2O (centres unmarked) [Example I-2-a-9] | 2.35 | –
33 | COC1CCCC2(C1)OC(=O)C(c1c(C)cc(Br)cc1C)=C2O (centres unmarked) [Example I-2-a-10] | 2.40 | –
34 | COC1CCCC2(C1)OC(=O)C(c1cc(C)c(C)cc1C)=C2O (centres unmarked) [Example I-2-a-11] | 2.21 | –
35 | COC1CCCC2(C1)OC(=O)C(c1c(C)cc(C)c(C)c1C)=C2O (centres unmarked) [Example I-2-a-12] | 2.50 | –
36 | CCc1cc(Br)cc(C)c1C1=C(O)C2(CCCC(OC)C2)OC1=O (centres unmarked) [Example I-2-a-13] | 2.74 | –
37 | COC1CCCC2(C1)OC(=O)C(c1c(Cl)cccc1Cl)=C2O (centres unmarked) [Example I-2-a-15] | 1.93 | –
38 | CCOC1CCCC2(C1)OC(=O)C(c1c(C)cc(-c3ccc(Cl)cc3)cc1CC)=C2O (centres unmarked) [Example I-2-a-17] | 4.19 | –
39 | COC1CCCC2(C1)OC(=O)C(c1cc(C)c(Br)cc1Br)=C2O (centres unmarked) [Example I-2-a-18] | 2.58 | –
40 | COC1CCCC2(C1)OC(=O)C(c1c(C)cc(Cl)cc1Cl)=C2O (centres unmarked) [Example I-2-a-20] | 2.41 | –
41 | COC1CCCC2(C1)OC(=O)C(c1c(Cl)cc(C)cc1Cl)=C2O (centres unmarked) [Example I-2-a-21] | 2.27 | –
42 | COC1CCCC2(C1)OC(=O)C(c1ccc(C)cc1Cl)=C2O (centres unmarked) [Example I-2-a-22] | 2.13 | –
43 | CCc1cc(Br)cc(Br)c1C1=C(O)C2(CCCC(OC)C2)OC1=O (centres unmarked) [Example I-2-a-26] | 2.77 | –
44 | COC1CCCC2(C1)OC(=O)C(c1c(C)cc(C)cc1Cl)=C2O (centres unmarked) [Example I-2-a-27] | 2.31 | –
45 | COC1CCCC2(C1)OC(=O)C(c1c(C)cc(C)cc1Br)=C2O (centres unmarked) [Example I-2-a-28] | 2.36 | –
46 | CCc1cc(Cl)c(C2=C(O)C3(CCCC(OC)C3)OC2=O)c(Br)c1 (centres unmarked) [Example I-2-a-29] | 2.62 | –

Row | SMILES | logP [1] | also measured
47 | COC1CCCC2(C1)OC(=O)C(c1cc(-c3ccc(Cl)cc3)ccc1Cl)=C2O (centres unmarked) [Example I-2-a-31] | 3.14 | –
48 | COC1CCCC2(C1)OC(=O)C(c1cc(-c3cccc(Cl)c3)ccc1C)=C2O (centres unmarked) [Example I-2-a-33] | 3.16 | –
49 | COC1CCCC2(C1)OC(=O)C(c1cc(-c3cccc(Cl)c3)ccc1Cl)=C2O (centres unmarked) [Example I-2-a-34] | 3.11 | –
50 | COC1CCCC2(C1)OC(=O)C(c1c(C)cc(C)c(F)c1C)=C2O (centres unmarked) [Example I-2-a-54] | 2.45 | –
51 | CO[C@H]1CCC[C@]2(C1)OC(=O)C(c1cc(-c3ccc(Cl)cc3)c(C)cc1C)=C2OC(=O)C(C)C [Example I-2-b-1] | – | chromatographic logP: 5.37
52 | COC1CCCC2(C1)OC(=O)C(c1cc(-c3ccc(Cl)cc3)c(C)cc1C)=C2OC(=O)C(C)C (centres unmarked) [Example I-2-b-2] | – | logP [2]: 5.25
53 | COC1CCCC2(C1)OC(=O)C(c1c(C)cc(C)cc1C)=C2OC(=O)C(C)C (centres unmarked) [Example I-2-b-3] | – | logP [2]: 4.32
54 | COC1CCCC2(C1)OC(=O)C(c1c(C)cc(C)cc1C)=C2OC(=O)C(C)C (centres unmarked) [Example I-2-b-4] | – | logP [2]: 4.15
55 | COc1cc(C)cc(C)c1C1=C(OC(=O)C(C)C)C2(CCCC(OC)C2)OC1=O (centres unmarked) [Example I-2-b-5] | – | logP [2]: 3.90
56 | COc1cc(C)cc(C)c1C1=C(OC(=O)C(C)C)C2(CCCC(OC)C2)OC1=O (centres unmarked) [Example I-2-b-6] | – | logP [2]: 3.75
57 | CO[C@H]1CCC[C@@]2(C1)OC(=O)C(c1cc(-c3ccc(Cl)cc3)c(C)cc1C)=C2OC(=O)OC(C)C [Example I-2-c-1] | – | chromatographic logP: 5.21
58 | COC1CCCC2(C1)OC(=O)C(c1cc(-c3ccc(Cl)cc3)c(C)cc1C)=C2OC(=O)OC(C)C (centres unmarked) [Example I-2-c-2] | – | logP [3]: 5.32
59 | COC1CCCC2(C1)OC(=O)C(c1c(C)cc(C)cc1C)=C2OC(=O)OC(C)C (centres unmarked) [Example I-2-c-3] | – | logP [3]: 4.17
60 | COC1CCCC2(C1)OC(=O)C(c1c(C)cc(C)cc1C)=C2OC(=O)OC(C)C (centres unmarked) [Example I-2-c-4] | – | logP [3]: 4.34
61 | COc1cc(C)cc(C)c1C1=C(OC(=O)OC(C)C)C2(CCCC(OC)C2)OC1=O (centres unmarked) [Example I-2-c-5] | – | logP [3]: 3.75
62 | COc1cc(C)cc(C)c1C1=C(OC(=O)OC(C)C)C2(CCCC(OC)C2)OC1=O (centres unmarked) [Example I-2-c-6] | – | logP [3]: 3.90
63 | COC1CCCC2(C1)OC(=O)C(c1c(Br)cc(C)cc1Br)=C2O (centres unmarked) [I-2-a-19] | 2.51 | –
64 | COC1CCCC2(C1)OC(=O)C(c1cc(Br)ccc1C)=C2O (centres unmarked) [I-2-a-23] | 2.30 | –
65 | COC1CCCC2(C1)OC(=O)C(c1ccc(Cl)cc1C(F)(F)F)=C2O (centres unmarked) [I-2-a-24] | 2.37 | –
66 | COC1CCCC2(C1)OC(=O)C(c1c(C)cccc1Cl)=C2O (centres unmarked) [I-2-a-25] | 1.92 | –
67 | COC1CCCC2(C1)OC(=O)C(c1c(Cl)cc(Br)c(C)c1Cl)=C2O (centres unmarked) [I-2-a-53] | 2.70 | –
68 | CCCCOC1CCCC2(C1)OC(=O)C(c1c(CC)cc(Br)cc1CC)=C2O (centres unmarked) [I-2-a-55] | 4.24 | –
